Where a name gives a salt, the structure may show the parent alone. Read-outs that look alike come from different tables or passages of the source.
Target: T1, A1 adenosine receptors (Rattus norvegicus, UniProt P25099)
T1 construct: rat cerebral cortex membranes; from tissue; host or cells: rat cerebral cortex membranes
T1 sequence (P25099 1-326): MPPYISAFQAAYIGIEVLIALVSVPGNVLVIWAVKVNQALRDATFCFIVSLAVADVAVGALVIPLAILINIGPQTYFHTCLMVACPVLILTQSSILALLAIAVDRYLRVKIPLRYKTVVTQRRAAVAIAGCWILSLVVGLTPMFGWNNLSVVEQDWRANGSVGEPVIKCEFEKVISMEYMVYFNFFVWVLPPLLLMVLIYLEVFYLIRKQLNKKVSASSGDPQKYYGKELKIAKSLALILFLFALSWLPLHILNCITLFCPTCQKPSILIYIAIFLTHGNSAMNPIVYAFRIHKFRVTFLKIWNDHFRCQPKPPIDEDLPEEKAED
Experiment: membrane binding assay at A1 adenosine receptors (Tables 1 and 2)
Source text: Table 2 lists prodrugs (including Routes A and B of FIG. 2) and chemical intermediates, based on xanthine and adenosine functionalized congener and the method of synthesis. The potency of each compound at A1 adenosine receptors is indicated by the Ki (inverse relationship to potency) in a membrane binding assay.

[1] = Table 1, prodrug before cleavage, read-out: Ki(nM) at A1 Before Cleavage
[2] = Table 1, liberated product, read-out: Ki(nM) at A1 After Cleavage

Row | Ki (Table 2, read-out: Ki (A1(nM))) | Structure (SMILES) | also measured
1 | 104 ± 7.7 nM | CCCCCCCCCCCCCC(=O)OCC(COC(=O)CCCCCCCCCCCCC)OC(=O)COc1ccc(-c2nc3c([nH]2)c(=O)n(CCC)c(=O)n3CCC)cc1 [1,3-dimyristin-(2-XCC), 1,3-Dimyristin-2-XCC] | Ki [1]: 104 nM
2 | 250 nM | CCCn1c(=O)c2c(nc(-c3ccc(OCC(=O)NCCN)cc3)n2Cc2ccccc2)n(CCC)c1=O [(N7-benzyl)XAC] | 
3 | 20 nM | CCCn1c(=O)c2[nH]c(-c3ccc(OCC(=O)NCCNC(=O)[C@H](CC(C)C)NC(C)=O)cc3)nc2n(CCC)c1=O [AcLeuXAC] | 
4 | 3.9 nM | CCCn1c(=O)c2[nH]c(-c3ccc(OCC(=O)NCCNC(=O)CNC(=O)[C@H](Cc4ccc(OC(C)=O)cc4)NC(C)=O)cc3)nc2n(CCC)c1=O [AcTyr(OAc)GlyXAC] | 
5 | 30 nM | CCCn1c(=O)c2[nH]c(-c3ccc(OCC(=O)NCCNC(=O)[C@H](CC(=O)O)NC(=O)OC(C)(C)C)cc3)nc2n(CCC)c1=O [BocAspXAC] | 
6 | 89 nM | CCCn1c(=O)c2[nH]c(-c3ccc(OCC(=O)NCCNC(=O)[C@@H](Cc4ccc([N+](=O)[O-])cc4)NC(=O)OC(C)(C)C)cc3)nc2n(CCC)c1=O [BocD(p-NO2)PheXAC] | 
7 | 4 nM | CCCn1c(=O)c2[nH]c(-c3ccc(OCC(=O)NCCNC(=O)CNC(=O)[C@H](Cc4ccc(O)cc4)NC(=O)OCc4ccccc4)cc3)nc2n(CCC)c1=O [CbzTyrGlyXAC] | Ki [1]: 4 nM
8 | 3.7 nM | CCCn1c(=O)c2[nH]c(-c3ccc(OCC(=O)NCCNC(=O)[C@@H](NC(=O)[C@H](Cc4ccc(O)cc4)NC(=O)OCc4ccccc4)C(C)C)cc3)nc2n(CCC)c1=O [CbzTyrValXAC] | 
9 | 32 nM | CCCn1c(=O)c2[nH]c(-c3ccc(OCC(=O)NCCNC(=O)[C@@H](Cc4ccc(N)cc4)NC(=O)OC(C)(C)C)cc3)nc2n(CCC)c1=O [Compound 10] | 
10 | 3.6 nM | CCCn1c(=O)c2[nH]c(-c3ccc(OCC(=O)NCCNC(=O)CNC(=O)CN)cc3)nc2n(CCC)c1=O [Compound 20] | 
11 | 13 nM | CCCn1c(=O)c2[nH]c(-c3ccc(OCC(=O)NCCO)cc3)nc2n(CCC)c1=O [Compound 39] | Ki [2]: 12 nM
12 | 12 nM | CCCn1c(=O)c2[nH]c(-c3ccc(OCC(=O)NCCOC(C)=O)cc3)nc2n(CCC)c1=O [Compound 40] | 
13 | 170 nM | CCCn1c(=O)c2[nH]c(-c3ccc(OCC(=O)NCCNC(=O)CN(CC(=O)O)C(=O)OCC4c5ccccc5-c5ccccc54)cc3)nc2n(CCC)c1=O [HO2 CCH2N(FMOC)CH2 COXAC, 8-[N -Carboxymethyl-N -(9-fluorenylmethyloxycarbonyl) -[[[[[[[[[amino]methyl]carbonyl]amino]ethyl]amino]carbonyl]methyl]-oxy]phenyl]-1,3-dipropylxanthine] | 
14 | 20 nM | CCCCCC=CCC=CCCCCCCCC(=O)NC(Cc1ccc(OC(=O)CCCCCCCC=CCC=CCCCCC)cc1)C(=O)NCC(=O)NCCNC(=O)COc1ccc(-c2nc3c([nH]2)c(=O)n(CCC)c(=O)n3CCC)cc1 (centres unmarked) [Linoleyl-Tyr(O-linoleyl)-GlyXAC] | Ki [1]: 20 nM
15 | 0.5 nM | CCCCC/C=C\C/C=C\CCCCCCCC(=O)NCCNC(=O)Cc1ccc(NC(=O)Cc2ccc(Nc3ncnc4c3ncn4[C@@H]3O[C@H](CO)[C@@H](O)[C@H]3O)cc2)cc1 [N-linoleyl-ADAC] | 
16 | 35 nM | CCCCC/C=C\C/C=C\CCCCCCCC(=O)NCCNC(=O)COc1ccc(-c2nc3c([nH]2)c(=O)n(CCC)c(=O)n3CCC)cc1 [N-linoleyl-XAC] | 

Further lines, the molecule ahead of its results:

Row | Structure (SMILES) | Ki (Table 2, read-out: Ki (A1(nM))) | also measured
17 | CCCn1c(=O)c2[nH]c(-c3ccc(OCC(=O)NCCNC(=O)[C@@H](NC(=O)[C@H](Cc4ccc(OC(C)=O)cc4)NC(C)=O)C(C)C)cc3)nc2n(CCC)c1=O [AcTyr(OAc)ValXAC] | 5 nM | Ki [1]: 5 nM
18 | CCCn1c(=O)c2[nH]c(-c3ccc(OCC(=O)NCCNC(=O)[C@H](CC(=O)OCc4ccccc4)NC(=O)OC(C)(C)C)cc3)nc2n(CCC)c1=O [BocAsp(OBzl)XAC] | 150 nM | Ki [1]: 150 nM
19 | CCCn1c(=O)c2[nH]c(-c3ccc(OCC(=O)NCCNC(=O)CC[C@H](NC(=O)OC(C)(C)C)C(=O)OCc4ccccc4)cc3)nc2n(CCC)c1=O [BocGlu(XAC)OBzl, Boc-glutamyl(gamma-XAC)-alpha-benzyl ester] | 18 nM | 
20 | CCCn1c(=O)c2[nH]c(-c3ccc(OCC(=O)NCCNC(=O)CNC(=O)CNC(=O)CNC(=O)OCc4ccccc4)cc3)nc2n(CCC)c1=O [CbzGlyGlyGlyXAC] | 10 nM | 
21 | CCCn1c(=O)c2[nH]c(-c3ccc(OCC(=O)NCCNC(=O)CNC(=O)CNC(=O)OCc4ccccc4)cc3)nc2n(CCC)c1=O [CbzGlyGlyXAC] | 3.1 nM | 
22 | CCCn1c(=O)c2[nH]c(-c3ccc(OCC(=O)NCCNC(=O)CNC(=O)[C@@H](N)Cc4ccc(O)cc4)cc3)nc2n(CCC)c1=O [Compound 22] |  | Ki: 5.3 nM
23 | CCCn1c(=O)c2[nH]c(-c3ccc(OCC(=O)NCCNC(=O)[C@@H](NC(=O)[C@@H](N)Cc4ccc(O)cc4)C(C)C)cc3)nc2n(CCC)c1=O [Compound 26] |  | Ki: 3 nM
24 | CCCCCCCC/C=C\CCCCCCCC(=O)OCC(COP(=O)(O)OCCNC(=O)COc1ccc(-c2nc3c([nH]2)c(=O)n(CCC)c(=O)n3CCC)cc1)OC(=O)CCCCCCC/C=C\CCCCCCCC (centres unmarked) [Compound 32, XCC-phosphatidylethanolamine] | 24 ± 1 nM | potency at adenosine A1 receptors relative to compound 33 / to hydrolysis product: of comparable potency
25 | CCCCCCCC/C=C/CCCCCCCC(=O)NCCNC(=O)Cc1ccc(NC(=O)Cc2ccc(Nc3ncnc4c3ncn4[C@@H]3O[C@H](CO)[C@@H](O)[C@H]3O)cc2)cc1 [Compound 37] | < 0.3 nM | potency in the blocked form: highly potent in the blocked form
26 | CCCn1c(=O)c2[nH]c(-c3ccc(OCC(=O)NCCNC(=O)c4ccc[n+](C)c4)cc3)nc2n(CCC)c1=O [Compound 43] | 40 nM | Ki [2]: 10 nM; Ki [1]: 10 nM
27 | CCCn1c(=O)c2[nH]c(-c3ccc(OCC(=O)NCCNC(=O)CNC(=O)CNC(=O)CN)cc3)nc2n(CCC)c1=O [HBr.HGlyGlyGlyXAC] | 10 nM | 
28 | CCCn1c(=O)c2[nH]c(-c3ccc(OCC(=O)NCCNC(=O)CC[C@H](N)C(=O)O)cc3)nc2n(CCC)c1=O [HGlu(XAC)OH] | 17 nM | 
29 | CCCn1c(=O)c2[nH]c(-c3ccc(OCC(=O)NCCNC(=O)CN)cc3)nc2n(CCC)c1=O [HGlyXAC] |  | Ki [2]: 2.1 nM
30 | CCCn1c(=O)c2[nH]c(-c3ccc(OCC(=O)NCCNC(=O)[C@@H](N)C(C)C)cc3)nc2n(CCC)c1=O [HValXAC] |  | Ki [2]: 3 nM
31 | CCCCCCCCCCCCCCCCCC(=O)NCCNC(=O)Cc1ccc(NC(=O)Cc2ccc(Nc3ncnc4c3ncn4[C@@H]3O[C@H](CO)[C@@H](O)[C@H]3O)cc2)cc1 [N-stearoyl-ADAC, Stearoyl-ADAC] | 1 nM | 
32 | CCCn1c(=O)c2c(nc(-c3ccc(OCC(=O)NCCNC(=O)OCc4ccccc4)cc3)n2Cc2ccccc2)n(CCC)c1=O [NCbz(N7-benzyl)XAC] | 95 nM | 
33 | CCCn1c(=O)c2[nH]c(-c3ccc(OCC(=O)NCCNC(=O)OCc4ccccc4)cc3)nc2n(CCC)c1=O [NCbzXAC] | 8 nM | 
34 | CCCCCCCC/C=C/CCCCCCCC(=O)OCCNC(=O)COc1ccc(-c2nc3c([nH]2)c(=O)n(CCC)c(=O)n3CCC)cc1 [O-elaidoyl-XHC, Elaidic ester of hydroxy congener] | 85 nM | 
35 | CCCCCCCCCCCCCCCCCC(=O)OCCNC(=O)COc1ccc(-c2nc3c([nH]2)c(=O)n(CCC)c(=O)n3CCC)cc1 [O-stearoyl-XHC] | 208 nM | Ki [1]: 208 nM
36 | CCCn1c(=O)c2[nH]c(-c3ccc(OCC(=O)NCCNC(=O)[C@H](N)Cc4ccc(N)c(I)c4)cc3)nc2n(CCC)c1=O [TFA.HD(p-NH2 -m-I)PheXAC] | 4 nM | 

From US4968672A, “Adenosine receptor prodrugs” (priority 1987, dated 1990)
